Patent EP0266890A1, “Imidazopyridine derivatives, their production, and pharmaceutical compositions containing them” (YAMANOUCHI PHARMACEUTICAL CO. LTD., priority 1986, dated 1988)

tested on: Gastric Acid Secretion; test: Histamine-stimulated gastric acid secretion in Heidenhain pouch dogs; assay type: in vivo, beagle dogs; details: histamine s.c. 1 hour after drug administration
Experimental: Six male beagle dogs (13 to 17kg) with well-established Heidenhain pouches were used for the construction of gastric acid secretion response curves. Food was withheld but water allowed for 18 hours before each experiment. Histamine (60 Mg/kg/hr) was administered subcutaneously 1 hour after drug administration. The pouch secretion was allowed to drain into a collection vessel which was changed every 15 minutes. Gastric juice volume was recorded, and acid concentration was determined by titration with 0.05N NaOH up to pH 7.0 using an automatic titrator (Hiranuma Sangyo Co., COMTITE-7).

Structure (SMILES)	Gastric Acid Secretion Inhibitory Rate (%) Pouch Dog 3 mg/kg p.o.
CC(C)=CCOc1cccn2c(CC#N)c(C)nc12 [Example 16, 3-Cyanomethyl-2-methyl-8-[(3-methyl-2-butenyl)-oxy]imidazo[1,2-a]pyridine]	82%
Cc1nc2c(OCc3ccccc3)cccn2c1CC#N [Known compound A, reference compound]	36%
Cc1nc2c(OCC3CCCCC3)cccn2c1CC#N [Example 11, 3-cyanomethyl-8-cyclohexylmethoxy-2-methylimidazo-[1,2-a]-pyridine]	67%
C=CCOc1cccn2c(CC#N)c(C)nc12 [Known compound B, reference compound]	21%
CCCCCOc1cccn2c(CC#N)c(C)nc12 [Example 12, 3-Cyanomethyl-2-methyl-8-pentyloxyimidazo-[1,2-a]pyridine]	61%

tested on: not listed separately; test: in vivo; parameters: species or system Fischer-rats; details: rat, po
Experimental: That is, LD50(p.o.) of the compound was higher than 1,000 mg/kg.

Structure (SMILES)	LD50 at 24 h
CC(C)=CCOc1cccn2c(CC#N)c(C)nc12 [Example 16, 3-Cyanomethyl-2-methyl-8-[(3-methyl-2-butenyl)-oxy]imidazo[1,2-a]pyridine]	> 1000 mg/kg
